The results in this text go back to patent publication US7622271B2, “Identification of aging genes through large-scale analysis” (University of Washington, priority 2004, dated 2009).

SMILES strings stand for the structures. Like-named read-outs stand apart in the source and are kept apart here.

The test relates to yeast cells. Conditions: for life span: yeast replicative life span. As for the experimental part: FIG. 2 illustrates replicative life span (“RLS”) analysis in yeast. […] A mother cell is a yeast cell that has produced one or more daughter cells. […] The total number of mitotic divisions completed by a given mother cell is the replicative life span for that mother cell. One indicator of senescence in yeast is the inability to produce daughter cells.
A large-scaled, life-span analysis is performed as follows. Approximately three days before initiating a life-span-determination assay, a set of 95 strains contained in a yeast alpha-haploid-deletion collection (Open Biosystems), is transferred to a 96-well plate containing YPDagar using a FX robot, so that each strain occupies one well of a 96-well plate. Concurrently, “wildtype” reference cells (BY4742) are plated within an empty well of the 96-well test plate. For 1-2 days, plated cells are allowed to grow on rich medium, such as YPD, at 30° C. Cells are patched onto life-span-measuring plates containing YPD so that approximately 12 strains are plated per plate the night, or approximately 12 hours, before initiating life-span analysis. A life-span experiment is initiated by gridding a region of the plate distal to growing cells, to which 5 cells of each strain of 12 strains are transferred by micromanipulation. Cells are incubated for two hours at 30° C. Then, virgin daughter cells of each deletion variant cell are selected, and original mother cells are removed. Such virgin daughter cells are monitored for de novo production of daughters at 2-3 hour intervals. Produced daughters are individually removed, and tabulated. Mother cells are placed back at 30° C. to allow continued growth. During evening hours, cells are moved to 4° C. so that the cell division rate is reduced to one cell division per evening. The following day, cells are placed at 30° C. to resume growth. This process is continued for a period of time, approximately two weeks, to allow cells of each variant strain to exhaust its proliferative potential. The total number of daughter cells produced by each mother variant cell is tabulated, and determined RLS values are entered into a database.

For the molecule `CS(=N)(=O)CC[C@H](N)C(=O)O` (stereo partly drawn) [MSX, methionine sulfoximine], the life span result by setting is: (50 uM, preliminary experiments) “significantly increases life span”; (100 uM, preliminary experiments) “significantly increases life span”; (1 mM, preliminary experiments) “significantly increases life span”; (2.5 mM, preliminary experiments) “significantly increases life span”. For the setting “1 mM (maximal life span extension), preliminary experiments”, the “increase in mean replicative life span” value was 25-30%. Besides, the “replicative life span in yeast” value (exposure of yeast cells to MSX) was “extends replicative life span”.
